From patent US7109193B2, “Tricyclic diazepines tocolytic oxytocin receptor antagonists” (Wyeth, priority 2001, dated 2006) come the findings set out here.

In series [1] the target is T1, human oxytocin receptor (Homo sapiens, UniProt P30559).
T1 construct: host or cells: CHO cells (pcDNA3.1 vector)
T1 sequence (P30559 1-389): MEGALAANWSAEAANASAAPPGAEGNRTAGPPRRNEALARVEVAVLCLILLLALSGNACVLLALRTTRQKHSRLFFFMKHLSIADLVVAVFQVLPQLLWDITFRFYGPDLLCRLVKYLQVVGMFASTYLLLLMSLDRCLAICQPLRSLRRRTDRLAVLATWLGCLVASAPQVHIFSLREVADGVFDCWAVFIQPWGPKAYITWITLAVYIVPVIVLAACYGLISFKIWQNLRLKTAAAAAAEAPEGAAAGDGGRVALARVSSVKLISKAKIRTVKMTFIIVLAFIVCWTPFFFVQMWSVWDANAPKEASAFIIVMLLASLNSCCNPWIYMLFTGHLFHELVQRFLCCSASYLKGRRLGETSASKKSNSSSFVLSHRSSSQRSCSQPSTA
As to the kind of experiment: Oxytocin binding in Chinese Hamster Ovary cell membranes expressing human oxytocin receptors. The conditions noted are these: 100 nM, CHO cell membranes, [3H]oxytocin, values without parentheses, read-out: OT % inhibition @ 100% nM.

A word on the inhibition: it is the drop in the measured response relative to a control, in per cent. What is called melting point is the temperature, or range, at which the solid turns liquid. `CCOc1ccccc1-c1cc(OC)c(C(=O)N2Cc3cccn3Cc3ccccc32)cc1Cl` [Example 17, 10-{[6-Chloro-3-methoxy-2′-ethoxy[1,1′-biphenyl]-4-yl]carbonyl}-10,11-dihydro-5H-pyrrolo[2,1-c][1,4]benzodiazepine] registered a melting point of 213 to 215 °C. In series [1], the inhibition at 0.1 µM was 28%.
The compound `O=C(c1ccc(-c2ccccc2)nc1)N1Cc2cccn2Cc2ccccc21` [Example 29, (6-Phenyl-pyridin-3-yl)-[10,11-dihydro-5H-pyrrolo[2,1-c][1,4]benzodiazepin-10-yl]methanone] displayed a melting point of 171 to 174 °C. For the same compound, the inhibition at 0.1 µM in series [1] was determined as 51%.
`Cc1cc(C(=O)N2Cc3cccn3Cc3ccccc32)ccc1-c1ccncc1` [Example 31, [3-Methyl-4-(4-pyridinyl)phenyl]-[10,11-dihydro-5H-pyrrolo[2,1-c][1,4]benzodiazepin-10-yl]methanone] yielded a melting point of 208 to 210 °C. Besides, in series [1], the inhibition at 0.1 µM was 69%.
The compound `Cc1cc(C(=O)N2Cc3cccn3Cc3ccccc32)cc(C)c1-n1c(C)ccc1C` [Example 30, [4-(2,5-Dimethyl-1H-pyrrol-1-yl)-3,5-dimethyl-phenyl][10,11-dihydro-5H-pyrrolo[2,1-c][1,4]benzodiazepin-10-yl]methanone] came in with a melting point of 197 to 199 °C. Also, the inhibition at 0.1 µM in series [1] came out at 48%.
`COc1cc(C(=O)N2Cc3ccc(C(=O)N4CCN(CCCN(C)C)CC4)n3Cc3ccccc32)ccc1-n1c(C)ccc1C` [Example 320, {4-[3-(Dimethylamino)propyl]-1-piperazinyl}{10-[4-(2,5-dimethyl-1H-pyrrol-1-yl)-3-methoxybenzoyl]-10,11-dihydro-5H-pyrrolo[2,1-c][1,4]benzodiazepin-3-yl}methanone]: the inhibition at 0.1 µM in series [1] stood at 34%.
For the compound `Cc1ccccc1-c1ccc(C(=O)N2Cc3ccc(C(=O)N4CCN(C)CC4)n3Cc3ccccc32)cc1` [Example 52, {10-[(2′-Methyl[1,1′-biphenyl]-4-yl)carbonyl]-10,11-dihydro-5H-pyrrolo[2,1-c][1,4]benzodiazepin-3-yl}(4-methyl-1-piperazinyl)methanone], the inhibition at 0.1 µM in series [1] was 86%.
Same read-out and setting: under `COc1cccc(-c2cc(OC)c(C(=O)N3Cc4ccc(C(=O)N[C@@H](CCCCNC(=O)OC(C)(C)C)C(N)=O)n4Cc4ccccc43)cc2Cl)c1` [Example 302, tert-Butyl (5S)-6-amino-5-[({10-[(6-chloro-3,3′-dimethoxy[1,1′-biphenyl]-4-yl)carbonyl]-10,11-dihydro-5H-pyrrolo[2,1-c][1,4]benzodiazepin-3-yl}carbonyl)amino]-6-oxohexylcarbamate] stands 64%; under `COc1cc(-c2ccccc2C)c(Cl)cc1C(=O)N1Cc2ccc(C(=O)N[C@@H](CCCCNC(=O)OC(C)(C)C)C(N)=O)n2Cc2ccccc21` [Example 304, tert-Butyl (5S)-6-amino-5-[({10-[(6-chloro-3-methoxy-2′-methyl[1,1′-biphenyl]-4-yl)carbonyl]-10,11-dihydro-5H-pyrrolo[2,1-c][1,4]benzodiazepin-3-yl}carbonyl)amino]-6-oxohexylcarbamate], 74%.
